Several values for one entry are separate records, joined by “and”; a condition that tells them apart may be missing. Equal entries are not always repeated.
Legend:
Type in all cases: biochemical
[1] = system: T1, UGT enzymes of human liver microsomes; assay: Inhibition of 7-HFC glucuronidation in human liver microsomes; conditions: for % of control metabolism (SD, n = 3), 7-HFC glucuronidation / IC50: 7-HFC 50 μM, 15 min; for % of control metabolism (SD, n = 3), 7-HFC glucuronidation: human liver microsomes 100 μg/ml; for IC50: 1 mM UDPGA
T1 construct: percentage of control metabolism, 7-HFC glucuronidation; percentage of control metabolism, 7-HFC glucuronidation

[2] = system: UGT enzymes of human liver microsomes; assay: Inhibition of raloxifene glucuronidation (G1, G2) in human liver microsomes; conditions: raloxifene 50 μM, human liver microsomes 250 μg/ml, 15 min
Description: Compounds were eluted using a binary solvent gradient system. […] Solvent B was methanol. […] Detection was at 280 nm.

[3] = target: T2, UGT enzymes of human liver microsomes (Homo sapiens, UniProt P16662); assay: Inhibition of zidovudine glucuronidation in human liver microsomes; conditions: liver lot 062101
T2 construct: residual metabolism (percentage of control), zidovudine glucuronidation; other: liver lot 062101; residual metabolism (percentage of control), zidovudine glucuronidation; residual metabolism (percentage of control)
T2 sequence (P16662 1-529): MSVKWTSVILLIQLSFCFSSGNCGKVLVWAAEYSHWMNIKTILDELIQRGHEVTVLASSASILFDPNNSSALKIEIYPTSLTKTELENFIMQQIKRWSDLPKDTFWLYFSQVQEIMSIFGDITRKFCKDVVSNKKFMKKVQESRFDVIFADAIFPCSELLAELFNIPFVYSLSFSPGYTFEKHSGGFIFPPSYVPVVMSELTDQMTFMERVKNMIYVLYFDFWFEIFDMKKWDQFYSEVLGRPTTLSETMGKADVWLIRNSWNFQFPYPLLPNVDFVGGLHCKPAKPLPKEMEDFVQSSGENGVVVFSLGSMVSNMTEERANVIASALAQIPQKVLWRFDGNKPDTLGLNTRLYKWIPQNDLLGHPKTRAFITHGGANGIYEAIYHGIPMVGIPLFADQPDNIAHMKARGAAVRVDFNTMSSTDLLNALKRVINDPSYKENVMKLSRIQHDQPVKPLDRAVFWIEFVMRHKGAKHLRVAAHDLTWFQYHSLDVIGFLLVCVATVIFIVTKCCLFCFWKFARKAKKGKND
Method: Compounds were eluted using a binary solvent gradient system where solvent A was dilute phosphoric acid (pH 3) and solvent B was acetonitrile.
Standardized incubations utilized 500 μM zidovudine substrate, 1 mg/ml microsomal protein, 5 mM UDPGA and a 30 min incubation time. […] Int.

COc1c2ccoc2cc2oc(=O)ccc12 [5-Methoxypsoralen (bergapten)]
% of control metabolism (SD, n = 3), 7-HFC glucuronidation ([1]; inhibitor 500 μM): 97 (1), % and 92 (1) %

Cc1cn([C@H]2C[C@H](N=[N+]=[N-])[C@@H](CO[C@@H]3O[C@H](C(=O)O)[C@@H](O)[C@H](O)[C@H]3O)O2)c(=O)[nH]c1=O [AZT glucuronide]
% of control metabolism (SD, n = 3), 7-HFC glucuronidation ([1]; inhibitor 500 μM): 103 (1) %

CN(C)CCC=C1c2ccccc2CCc2ccccc21 [Amitriptyline, reference compound]
% of control metabolism (SD, n = 3), 7-HFC glucuronidation ([1]; inhibitor 500 μM): 94 (1) % | % of control metabolism (SD, n = 3), raloxifene glucuronide G1 ([2]; inhibitor 500 μM): 138 (6) % | % of control metabolism (SD, n = 3), raloxifene glucuronide G2 ([2]; inhibitor 500 μM): 132 (5) %

O=C1O[C@H]([C@@H](O)CO)C(O)=C1O [Ascorbic acid]
% of control metabolism (SD, n = 3), 7-HFC glucuronidation ([1]; inhibitor 500 μM): 99 (1) %

CCCCCCCCCCCCCCCC(=O)OC[C@H](O)[C@H]1OC(=O)C(O)=C1O [Ascorbyl palmitate]
IC50 [1]: 200 µM | percentage of control metabolism, 7-HFC glucuronidation ([1]; inhibitor 100 μM): 64 (1) % | % of control metabolism (SD, n = 3), 7-HFC glucuronidation ([1]; inhibitor 100 μM): 64 (1) % | percentage of control metabolism, 7-HFC glucuronidation ([1]; inhibitor 200 μM): 51 (1) % | % of control metabolism (SD, n = 3), 7-HFC glucuronidation ([1]; inhibitor 200 μM): 51 (1) % | percentage of control metabolism, 7-HFC glucuronidation ([1]; inhibitor 500 μM): 11 (3) % and 17 (0) % | % of control metabolism (SD, n = 3), 7-HFC glucuronidation ([1]; inhibitor 500 μM): 11 (3), % and 17 (0) % | % of control metabolism (SD, n = 3), raloxifene glucuronide G1 ([2]; inhibitor 100 μM): 57 (2) % | % of control metabolism (SD, n = 3), raloxifene glucuronide G1 ([2]; inhibitor 500 μM): 26 (1) % | % of control metabolism (SD, n = 3), raloxifene glucuronide G2 ([2]; inhibitor 100 μM): 71 (4) % | % of control metabolism (SD, n = 3), raloxifene glucuronide G2 ([2]; inhibitor 500 μM): 36 (5) %

CCCCCCCCCCCCCCCCCC(=O)OC[C@H](O)[C@H]1OC(=O)C(O)=C1O [Ascorbyl stearate]
% of control metabolism (SD, n = 3), 7-HFC glucuronidation ([1]; inhibitor 500 μM): 73 (2) %

CCCC(=O)OCC(O)C1OC(=O)C(OC(=O)CCC)=C1O (centres unmarked) [Ascorbyl-2,6-dibutyrate]
% of control metabolism (SD, n = 3), 7-HFC glucuronidation ([1]; inhibitor 500 μM): 92 (1) %

CCCCCCCCCCCCCCCC(=O)O[C@H]1CC[C@@]2(C)C(=CC[C@H]3[C@@H]4CC[C@H]([C@H](C)CCCC(C)C)[C@@]4(C)CC[C@@H]32)C1 [Cholesteryl palmitate]
% of control metabolism (SD, n = 3), 7-HFC glucuronidation ([1]; inhibitor 500 μM): 100 (3) %

O=C(O)C=Cc1ccccc1 [Cinnamic acid]
residual metabolism (percentage of control), zidovudine glucuronidation ([3]; inhibitor 500 μM): 97 (3) % | % of control metabolism (SD, n = 3), 7-HFC glucuronidation ([1]; inhibitor 500 μM): 94 (2) %

OCC=Cc1ccccc1 [Cinnamyl alcohol]
% of control metabolism (SD, n = 3), 7-HFC glucuronidation ([1]; inhibitor 500 μM): 87 (1) %

COc1cc(/C=C/CO)ccc1O [Coniferol]
% of control metabolism (SD, n = 3), 7-HFC glucuronidation ([1]; inhibitor 500 μM): 87 (0) %

C[C@]12CC[C@@H]3c4ccc(O)cc4CC[C@H]3[C@@H]1C[C@@H](O)[C@@H]2O [Estriol]
% of control metabolism (SD, n = 3), 7-HFC glucuronidation ([1]; inhibitor 500 μM): 84 (2) % | % of control metabolism (SD, n = 3), raloxifene glucuronide G1 ([2]; inhibitor 500 μM): 46 (3) % | % of control metabolism (SD, n = 3), raloxifene glucuronide G2 ([2]; inhibitor 500 μM): 60 (3) %

CCCCCCCCCCCCCCCC(=O)OCC [Ethyl palmitate]
% of control metabolism (SD, n = 3), 7-HFC glucuronidation ([1]; inhibitor 500 μM): 89 (3) %

O=C(O)c1cc(O)c(O)c(O)c1 [Gallic acid]
% of control metabolism (SD, n = 3), 7-HFC glucuronidation ([1]; inhibitor 500 μM): 117 (2) %

CC(C)=CCC/C(C)=C/CO [Geraniol]
residual metabolism (percentage of control), zidovudine glucuronidation ([3]; inhibitor 100 μM): 77 (5) % | residual metabolism (percentage of control), zidovudine glucuronidation ([3]; inhibitor 200 μM): 62 (3) % | residual metabolism (percentage of control), zidovudine glucuronidation ([3]; inhibitor 500 μM): 28 (3) % and 25 (0) % | residual metabolism (percentage of control), zidovudine glucuronidation ([3]; inhibitor 1000 μM): 9 (1) % | % of control metabolism (SD, n = 3), 7-HFC glucuronidation ([1]; inhibitor 500 μM): 75 (0) %

COc1ccc2c(c1)c(CC(=O)O)c(C)n2C(=O)c1ccc(Cl)cc1 [Indomethacin, reference compound]
residual metabolism (percentage of control), zidovudine glucuronidation ([3]; inhibitor 500 μM): 68 (7) % | % of control metabolism (SD, n = 3), 7-HFC glucuronidation ([1]; inhibitor 100 μM): 82 (0) % | % of control metabolism (SD, n = 3), 7-HFC glucuronidation ([1]; inhibitor 200 μM): 73 (1) % | % of control metabolism (SD, n = 3), 7-HFC glucuronidation ([1]; inhibitor 500 μM): 49 (2), % and 48 (1) %

CCCCCCCCCCCCOC(=O)c1cc(O)c(O)c(O)c1 [Lauryl gallate]
IC50 [1]: 100 µM | percentage of control metabolism, 7-HFC glucuronidation ([1]; inhibitor 25 μM): 92 (3) % | % of control metabolism (SD, n = 3), 7-HFC glucuronidation ([1]; inhibitor 25 μM): 92 (3) % | percentage of control metabolism, 7-HFC glucuronidation ([1]; inhibitor 50 μM): 76 (2) % | % of control metabolism (SD, n = 3), 7-HFC glucuronidation ([1]; inhibitor 50 μM): 76 (2) % | percentage of control metabolism, 7-HFC glucuronidation ([1]; inhibitor 100 μM): 43 (2) % and 49 (1) % | % of control metabolism (SD, n = 3), 7-HFC glucuronidation ([1]; inhibitor 100 μM): 43 (2) % and 49 (1) % | percentage of control metabolism, 7-HFC glucuronidation ([1]; inhibitor 200 μM): 22 (1) % | % of control metabolism (SD, n = 3), 7-HFC glucuronidation ([1]; inhibitor 200 μM): 22 (1) % | percentage of control metabolism, 7-HFC glucuronidation ([1]; inhibitor 500 μM): 18 (6) % | % of control metabolism (SD, n = 3), 7-HFC glucuronidation ([1]; inhibitor 500 μM): 18 (6) % | % of control metabolism (SD, n = 3), raloxifene glucuronide G1 ([2]; inhibitor 100 μM): 64 (4) % | % of control metabolism (SD, n = 3), raloxifene glucuronide G1 ([2]; inhibitor 500 μM): 7 (0) % | % of control metabolism (SD, n = 3), raloxifene glucuronide G2 ([2]; inhibitor 100 μM): 85 (3) % | % of control metabolism (SD, n = 3), raloxifene glucuronide G2 ([2]; inhibitor 500 μM): 37 (1) %

Source: patent US20030215462A1, “Use of UGT inhibitors to increase bioavailability” (priority 2001, published 2003)
